# Experimental data from PubChem BioAssay AID256 (DTP/NCI, 2004).
# “And” between values parts separate entries of the source, which are not always exact repeats. Equal values may be shown once. Toxic doses and inconclusive results are not listed.
# System: CD2F1 mice, L1210 leukemia ip, survival T/C
# Experiment: NCI In Vivo Anticancer Drug Screen. Data for tumor model L1210 Leukemia (intraperitoneal) in CD2F1 (CDF1) mice
# Settings: higher = longer survival
# Method in brief: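 Transplantable tumor in mice; compound-treated vs vehicle-treated groups. Read-out = treated/control ratio of the measured endpoint.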
# [1] = endpoint: mean survival time, dose: 25.0 mg/kg/injection, schedule: Q01DX009 (ip), vehicle: saline
# [2] = endpoint: mean survival time, dose: 50.0 mg/kg/injection, schedule: Q01DX009 (ip), vehicle: saline
# [3] = endpoint: mean survival time, dose: 100.0 mg/kg/injection, schedule: Q01DX009 (ip), vehicle: saline
# [4] = endpoint: mean survival time, dose: 100.0 mg/kg/injection, schedule: Q04DX002 (ip), vehicle: saline
# [5] = endpoint: mean survival time, dose: 200.0 mg/kg/injection, schedule: Q01DX009 (ip), vehicle: saline
# [6] = endpoint: mean survival time, dose: 200.0 mg/kg/injection, schedule: Q04DX002 (ip), vehicle: saline
# [7] = endpoint: mean survival time, dose: 400.0 mg/kg/injection, schedule: Q04DX002 (ip), vehicle: saline
# [8] = endpoint: mean survival time, dose: 100.0 mg/kg/injection, schedule: Q01DX001 (ip), vehicle: saline with Tween-80
# [9] = endpoint: mean survival time, dose: 200.0 mg/kg/injection, schedule: Q01DX001 (ip), vehicle: saline with Tween-80
# [10] = endpoint: mean survival time, dose: 400.0 mg/kg/injection, schedule: Q01DX001 (ip), vehicle: saline with Tween-80
# [11] = endpoint: mean survival time, dose: 100.0 mg/kg/injection, schedule: Q01DX009 (ip), vehicle: saline with Tween-80
# [12] = endpoint: mean survival time, dose: 100.0 mg/kg/injection, schedule: Q04DX003 (ip), vehicle: saline with Tween-80
# [13] = endpoint: mean survival time, dose: 200.0 mg/kg/injection, schedule: Q01DX009 (ip), vehicle: saline with Tween-80
# [14] = endpoint: mean survival time, dose: 200.0 mg/kg/injection, schedule: Q04DX003 (ip), vehicle: saline with Tween-80
# [15] = endpoint: mean survival time, dose: 400.0 mg/kg/injection, schedule: Q01DX009 (ip), vehicle: saline with Tween-80
# [16] = endpoint: mean survival time, dose: 400.0 mg/kg/injection, schedule: Q04DX003 (ip), vehicle: saline with Tween-80
# [17] = endpoint: mean survival time, dose: 75.0 mg/kg/injection, schedule: Q01DX001 (ip), vehicle: saline
# [18] = endpoint: mean survival time, dose: 150.0 mg/kg/injection, schedule: Q01DX001 (ip), vehicle: saline
# [19] = endpoint: mean survival time, dose: 50.0 mg/kg/injection, schedule: Q01DX009 (ip), vehicle: saline with Tween-80
smiles,measurement,setting,value
O/N=C\c1ccc2c(c1)OCCO2,T/C,"endpoint: mean survival time, dose: 37.5 mg/kg/injection, schedule: Q01DX009 (ip), vehicle: saline",97 % of control
same,T/C,"endpoint: mean survival time, dose: 75.0 mg/kg/injection, schedule: Q01DX009 (ip), vehicle: saline",103 % of control
same,T/C,"endpoint: mean survival time, dose: 75.0 mg/kg/injection, schedule: Q04DX003 (ip), vehicle: saline",112 % of control
same,T/C,"endpoint: mean survival time, dose: 150.0 mg/kg/injection, schedule: Q01DX009 (ip), vehicle: saline",100 % of control
same,T/C,"endpoint: mean survival time, dose: 150.0 mg/kg/injection, schedule: Q04DX003 (ip), vehicle: saline",100 % of control
same,T/C,"endpoint: mean survival time, dose: 300.0 mg/kg/injection, schedule: Q04DX003 (ip), vehicle: saline",100 % of control
O=C(CCl)c1ccc(O)c(O)c1,T/C,"endpoint: mean survival time, dose: 6.25 mg/kg/injection, schedule: Q04DX003 (ip), vehicle: saline",94 % of control
same,T/C,"endpoint: mean survival time, dose: 12.5 mg/kg/injection, schedule: Q04DX003 (ip), vehicle: saline",92 % of control
same,T/C,"endpoint: mean survival time, dose: 25.0 mg/kg/injection, schedule: Q04DX003 (ip), vehicle: saline",92 % of control
CN(C)C=O,T/C,[1],101 % of control
same,T/C,[2],97 % of control
same,T/C,[3],101 % of control
same,T/C,[4],111 % of control
same,T/C,[5],100 % of control
same,T/C,[6],96 % of control
same,T/C,"endpoint: mean survival time, dose: 400.0 mg/kg/injection, schedule: Q01DX009 (ip), vehicle: saline",109 % of control
same,T/C,[7],111 % of control
same,T/C,"endpoint: mean survival time, dose: 800.0 mg/kg/injection, schedule: Q01DX009 (ip), vehicle: saline",106 % of control
same,T/C,"endpoint: mean survival time, dose: 1600.0 mg/kg/injection, schedule: Q01DX009 (ip), vehicle: saline",105 % of control
[Cl][Pt][Cl].c1ccc([PH+](c2ccccc2)c2ccccc2)cc1.c1ccc([PH+](c2ccccc2)c2ccccc2)cc1,T/C,[8],95 % of control
same,T/C,[9],92 % of control
same,T/C,[10],92 % of control
CNS(=O)(=O)c1ccc2c(c1)[nH]c(=S)n2C,T/C,[11],97 % of control
same,T/C,[12],96 % of control
same,T/C,[13],93 % of control
same,T/C,[14],92 % of control
same,T/C,[15],93 % of control
same,T/C,[16],90 % of control
COCNC(=S)N/N=C/c1ccc(O)cn1,T/C,"endpoint: mean survival time, dose: 100.0 mg/kg/injection, schedule: Q04DX002 (ip), vehicle: saline with Tween-80",95 % of control
same,T/C,"endpoint: mean survival time, dose: 200.0 mg/kg/injection, schedule: Q04DX002 (ip), vehicle: saline with Tween-80",98 % of control
same,T/C,"endpoint: mean survival time, dose: 400.0 mg/kg/injection, schedule: Q04DX002 (ip), vehicle: saline with Tween-80",102 % of control
Cc1ccc(Cl)cc1S,T/C,[17],98 % of control
same,T/C,[18],102 % of control
same,T/C,"endpoint: mean survival time, dose: 300.0 mg/kg/injection, schedule: Q01DX001 (ip), vehicle: saline",103 % of control
CC(C)OC(=O)Nc1cc(F)ccc1F,T/C,"endpoint: mean survival time, dose: 100.0 mg/kg/injection, schedule: Q01DX009 (ip), vehicle: other",97 % of control
same,T/C,"endpoint: mean survival time, dose: 200.0 mg/kg/injection, schedule: Q01DX009 (ip), vehicle: other",94 % of control
CC(=O)c1cc2ccccc2o1,T/C,"endpoint: mean survival time, dose: 6.25 mg/kg/injection, schedule: Q04DX003 (ip), vehicle: saline with Tween-80",96 % of control
same,T/C,"endpoint: mean survival time, dose: 12.5 mg/kg/injection, schedule: Q04DX003 (ip), vehicle: saline with Tween-80",96 % of control
same,T/C,"endpoint: mean survival time, dose: 25.0 mg/kg/injection, schedule: Q04DX003 (ip), vehicle: saline with Tween-80",101 % of control
same,T/C,"endpoint: mean survival time, dose: 50.0 mg/kg/injection, schedule: Q04DX003 (ip), vehicle: saline with Tween-80",95 % of control
Nc1nc(=O)n(CCCOc2ccc(Cl)cc2)cc1-c1ccccc1,T/C,[8],98 % of control
same,T/C,[9],101 % of control
same,T/C,[10],88 % of control
O=c1[nH]c(=O)n(C2CC(O)C(CO)O2)cc1C1SCCS1 (configuration not stated),T/C,"endpoint: mean survival time, dose: 3.8 mg/kg/injection, schedule: Q01DX005 (ip), vehicle: water",102 % of control
same,T/C,"endpoint: mean survival time, dose: 7.5 mg/kg/injection, schedule: Q01DX005 (ip), vehicle: water",98 % of control
same,T/C,"endpoint: mean survival time, dose: 15.0 mg/kg/injection, schedule: Q01DX005 (ip), vehicle: water",95 % of control
same,T/C,"endpoint: mean survival time, dose: 30.0 mg/kg/injection, schedule: Q01DX005 (ip), vehicle: water",87 % of control
same,T/C,"endpoint: mean survival time, dose: 60.0 mg/kg/injection, schedule: Q01DX005 (ip), vehicle: water",106 % of control
C=CCNC(=O)C(O)C(O)C(=O)NCC=C (configuration not stated),T/C,"endpoint: mean survival time, dose: 100.0 mg/kg/injection, schedule: Q01DX009 (ip), vehicle: acetone",101 % of control
same,T/C,"endpoint: mean survival time, dose: 100.0 mg/kg/injection, schedule: Q04DX003 (ip), vehicle: acetone",98 % of control
same,T/C,"endpoint: mean survival time, dose: 200.0 mg/kg/injection, schedule: Q01DX009 (ip), vehicle: acetone",96 % of control
same,T/C,"endpoint: mean survival time, dose: 200.0 mg/kg/injection, schedule: Q04DX003 (ip), vehicle: acetone",100 % of control
same,T/C,"endpoint: mean survival time, dose: 400.0 mg/kg/injection, schedule: Q01DX009 (ip), vehicle: acetone",98 % of control
same,T/C,"endpoint: mean survival time, dose: 400.0 mg/kg/injection, schedule: Q04DX003 (ip), vehicle: acetone",112 % of control
CC(=O)Nc1ccccc1Sc1ccncc1[N+](=O)[O-],T/C,[11],100 % of control
same,T/C,[12],88 % of control
same,T/C,[13],100 % of control
same,T/C,[14],92 % of control
same,T/C,[15],90 % of control
same,T/C,[16],95 % of control
[Cl][Gd]([Cl])[Cl],T/C,[11],92 % of control
same,T/C,[13],94 % of control
O=C1C=C(N2CC2)C(=O)C(N2CC2)=C1N1CC1,T/C,"endpoint: median survival time, dose: 12.5 micrograms/kg/injection, schedule: Q01DX009 (ip), vehicle: saline",113 % of control
same,T/C,"endpoint: median survival time, dose: 25.0 micrograms/kg/injection, schedule: Q01DX009 (ip), vehicle: saline with Tween-80",96 % of control
same,T/C,"endpoint: median survival time, dose: 25.0 micrograms/kg/injection, schedule: Q01DX009 (ip), vehicle: saline",113 % of control
same,T/C,"endpoint: median survival time, dose: 50.0 micrograms/kg/injection, schedule: Q01DX009 (ip), vehicle: saline with Tween-80",118 % of control and 108 % of control
same,T/C,"endpoint: median survival time, dose: 100.0 micrograms/kg/injection, schedule: Q01DX009 (ip), vehicle: saline with Tween-80",156 % of control
same,T/C,"endpoint: median survival time, dose: 200.0 micrograms/kg/injection, schedule: Q01DX009 (ip), vehicle: saline with Tween-80",164 % of control and 190 % of control
same,T/C,"endpoint: median survival time, dose: 400.0 micrograms/kg/injection, schedule: Q01DX009 (ip), vehicle: saline with Tween-80",87 % of control and 91 % of control
COc1cc(OC)c(NC(=O)Nc2ccc(Cl)c(C(F)(F)F)c2)cc1Cl,T/C,[19],93 % of control
same,T/C,[11],93 % of control
same,T/C,[13],93 % of control
Cc1nc(N)nc(N)c1CCCOc1ccc(NC(=O)c2cccc(S(=O)(=O)F)c2)cc1,T/C,"endpoint: mean survival time, dose: 12.5 mg/kg/injection, schedule: Q01DX009 (ip), vehicle: saline",101 % of control
same,T/C,[1],107 % of control
same,T/C,[2],107 % of control
same,T/C,[3],109 % of control
same,T/C,"endpoint: mean survival time, dose: 100.0 mg/kg/injection, schedule: Q#A X018 (ip), vehicle: saline",90 % of control
same,T/C,[5],107 % of control
O=C(c1cccnc1)C1Cc2ccccc2C1=O (configuration not stated),T/C,"endpoint: mean survival time, dose: 100.0 mg/kg/injection, schedule: Q01DX009 (ip), vehicle: saline sonified",102 % of control
same,T/C,"endpoint: mean survival time, dose: 200.0 mg/kg/injection, schedule: Q01DX009 (ip), vehicle: saline sonified",96 % of control
same,T/C,"endpoint: mean survival time, dose: 400.0 mg/kg/injection, schedule: Q01DX009 (ip), vehicle: saline sonified",94 % of control
COc1cc(CN(C)CCO)ccc1OCc1ccccc1,T/C,[12],102 % of control
same,T/C,[14],96 % of control
CCCN(CCC)N=Nc1ccccc1,T/C,[17],104 % of control
same,T/C,[18],101 % of control
CC1(C)C=CC(=O)c2ccccc21,T/C,[12],94 % of control
same,T/C,[14],100 % of control
same,T/C,[16],101 % of control
O=S(=O)(O)c1cccnc1,T/C,[4],94 % of control
same,T/C,[6],94 % of control
same,T/C,[7],97 % of control
O=C1c2cccc(O)c2C(=O)c2cccc(O)c21,T/C,[12],102 % of control
same,T/C,[14],94 % of control
same,T/C,[16],105 % of control
Cc1ccc(S(=O)(=O)N/N=C2/C=C3C/C(=N\NS(=O)(=O)c4ccc(C)cc4)C=C3C2)cc1,T/C,[19],93 % of control
same,T/C,[11],89 % of control
same,T/C,[13],89 % of control
CC1=NN(c2ccccc2)C(=O)C1N=Nc1ccc([As](=O)(O)O)c(O)c1 (configuration not stated),T/C,[11],103 % of control
same,T/C,[12],106 % of control
same,T/C,[13],97 % of control
same,T/C,[14],100 % of control
same,T/C,[16],101 % of control
